Data as given in patent US11345711B2, “8,9-dihydroimidazo[1,2-a]pyrimido[5,4-e]pyrimidin-5(6H)-ones” (IMPACT THERAPEUTICS (SHANGHAI), INC, priority 2016, dated 2022).
Read-outs that look alike come from different tables or passages of the source.

Experiments:
NCI-H1299 cells = assay: MTT based cell viability assay on NCI-H1299 cells; conditions: Homo sapiens, read-out: IC50, growth inhibition of NCI-H1299 cells
Procedure, shortened: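 Viability read-out was MTT reduction (0.5 mg/mL, 4 h, absorbance 552/630/690 nm) after 3-day compound exposure at 37 °C of NCI-H1299 cells seeded at 1000 per well. Dilutions spanned 10 μM–0.01 μM in DMSO, final DMSO 1‰. Survival-versus-concentration curves were fitted sigmoidally to give IC50.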

Wee1 (h) = Wee1 (h) (Homo sapiens, UniProt P30291); assay: Wee1 kinase (h) detection method, [γ-33P]-ATP filter assay; assay type: biochemical
Wee1 (h), sequence (P30291 whole entry): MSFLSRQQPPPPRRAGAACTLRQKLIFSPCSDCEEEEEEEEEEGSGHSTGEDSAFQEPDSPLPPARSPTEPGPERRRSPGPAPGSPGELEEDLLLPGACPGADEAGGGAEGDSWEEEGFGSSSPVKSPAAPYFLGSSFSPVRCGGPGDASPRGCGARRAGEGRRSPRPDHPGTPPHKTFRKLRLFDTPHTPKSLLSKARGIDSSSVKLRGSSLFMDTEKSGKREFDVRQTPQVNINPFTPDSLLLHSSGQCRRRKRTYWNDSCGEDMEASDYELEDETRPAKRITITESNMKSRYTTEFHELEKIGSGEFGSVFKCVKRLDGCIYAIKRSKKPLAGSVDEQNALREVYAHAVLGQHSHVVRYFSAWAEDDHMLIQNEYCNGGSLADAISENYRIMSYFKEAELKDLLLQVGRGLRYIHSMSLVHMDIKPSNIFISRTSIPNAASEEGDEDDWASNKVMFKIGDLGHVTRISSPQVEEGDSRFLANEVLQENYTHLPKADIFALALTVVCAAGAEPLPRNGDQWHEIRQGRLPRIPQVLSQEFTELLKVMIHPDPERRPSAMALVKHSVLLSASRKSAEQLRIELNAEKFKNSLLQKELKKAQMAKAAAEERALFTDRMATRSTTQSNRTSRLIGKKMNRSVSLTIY

LoVo cells = assay: MTT based cell viability assay on LoVo cells; conditions: Homo sapiens, LoVo, 72 h, 3 d, read-out: IC50, growth inhibition of LoVo cells
Procedure, shortened: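 Inhibition of LoVo proliferation was derived as IC50 from a sigmoidal dose-response fit of cell survival. Readout was MTT (0.5 mg/mL, 4 h) with absorbance at 552/630/690 nm, after 3-day treatment at 37 °C. Eight-point series from 10 μM to 0.01 μM, DMSO control, 1% DMSO final.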

| Compound | IC50 (NCI-H1299 cells; NCI-H1299 cells) | Inh. (%) of Wee1 kinase enzyme activity (Wee1 (h); C 0.01 μm compound) | Inh. (%) of Wee1 kinase enzyme activity (Wee1 (h); C 0.1 μm compound) | Inh. (%) of Wee1 kinase enzyme activity (Wee1 (h); C 1 μm compound) | IC50 (LoVo cells) | IC50 (NCI-H1299 cells; NCI-H1299, NCI-H1299 cells) |
| --- | --- | --- | --- | --- | --- | --- |
| CN1CCc2ccc(Nc3ncc4c(n3)N3CCN=C3N(c3c(F)cccc3Cl)C4=O)cc2C1 [Example 8, 6-(2-Chloro-6-fluorophenyl)-2-((2-methyl-1,2,3,4-tetrahydroisoquinolin-7-yl)amino)-8,9-dihydroimidazo[1,2-a]pyrimido[5,4-e]pyrimidin-5(6H)-one] | 159 nM | 60% | 93% | 99% | 202 nM | – |
| C=CCN1C(=O)c2cnc(Nc3ccc(N4CCN(C)CC4)cc3)nc2N2CCN=C12 [Example 22, 6-Allyl-2-((4-(4-methylpiperazin-1-yl)phenyl)amino)-8,9-dihydroimidazo[1,2-a]pyrimido[5,4-e]pyrimidin-5(6H)-one] | > 10000 nM | – | – | 8% | > 100000 nM | – |
| C[C@@H]1CN(c2ccc(Nc3ncc4c(n3)N3CCN=C3N(c3c(F)cccc3Cl)C4=O)c(F)c2)C[C@H](C)N1C [Example 37, 6-(2-Chloro-6-fluorophenyl)-2-((2-fluoro-4-((3S,5R)-3,4,5-trimethylpiperazin-1-yl)phenyl)amino)-8,9-dihydroimidazo[1,2-a]pyrimido[5,4-e]pyrimidin-5(6H)-one] | > 10000 nM | – | – | 1% | > 100000 nM | – |

Now from value to compound:

| IC50 (NCI-H1299 cells; NCI-H1299 cells) | Inh. (%) of Wee1 kinase enzyme activity (Wee1 (h); C 0.01 μm compound) | Inh. (%) of Wee1 kinase enzyme activity (Wee1 (h); C 0.1 μm compound) | Inh. (%) of Wee1 kinase enzyme activity (Wee1 (h); C 1 μm compound) | IC50 (LoVo cells) | IC50 (NCI-H1299 cells; NCI-H1299, NCI-H1299 cells) | Compound |
| --- | --- | --- | --- | --- | --- | --- |
| – | 28% | 80% | 95% | 1180 nM | 616 nM | C[C@@H]1CN(c2ccc(Nc3ncc4c(n3)N3CCN=C3N(c3c(F)cccc3Cl)C4=O)cc2F)C[C@H](C)N1C [Example 45, 6-(2-Chloro-6-fluorophenyl)-2-((3-fluoro-4-((3S,5R)-3,4,5-trimethylpiperazin-1-yl)phenyl)amino)-8,9-dihydroimidazo[1,2-a]pyrimido[5,4-e]pyrimidin-5(6H)-one] |
| – | 19% | 76% | 97% | 61.5 nM | 140 nM | COc1cc(Nc2ncc3c(n2)N2CCN=C2N(c2c(Cl)cccc2Cl)C3=O)cc(Cl)c1N1CCC(N(C)C)CC1 [Example 144, 6-(2,6-Dichlorophenyl)-2-((3-chloro-4-(4-(dimethylamino)piperidin-1-yl)-5-methoxyphenyl)amino)-8,9-dihydroimidazo[1,2-a]pyrimido[5,4-e]pyrimidin-5(6H)-one] |
| – | 40% | 90% | 94% | 39.8 nM | 123 nM | Cc1cc(Nc2ncc3c(n2)N2CCN=C2N(c2c(Cl)cccc2Cl)C3=O)cc(F)c1N1CCN(C)CC1 [Example 148, 6-(2,6-Dichlorophenyl)-2-((3-fluoro-5-methyl-4-(4-methylpiperazin-1-yl)phenyl)amino)-8,9-dihydroimidazo[1,2-a]pyrimido[5,4-e]pyrimidin-5(6H)-one] |
| 925 nM | – | – | 83% | 194 nM | – | Cc1cc(Nc2ncc3c(n2)N2CCN=C2N(c2c(C)cccc2F)C3=O)ccc1N1CCN(C)CC1 [Example 62, 6-(2-Fluoro-6-methylphenyl)-2-((3-methyl-4-(4-methylpiperazin-1-yl)phenyl)amino)-8,9-dihydroimidazo[1,2-a]pyrimido[5,4-e]pyrimidin-5(6H)-one] |
| 1440 nM | 15% | 59% | 94% | 2900 nM | – | Cc1cccc(C)c1N1C(=O)c2cnc(Nc3ccc(N4CCN(C)CC4)cc3)nc2N2CCN=C21 [Example 83, 6-(2,6-Dimethylphenyl)-2-((4-(4-methylpiperazin-1-yl)phenyl)amino)-8,9-dihydroimidazo[1,2-a]pyrimido[5,4-e]pyrimidin-5(6H)-one] |
